Literature values, collected in patent publication US6004532A, “Formulation for Tin-^117m /diethylenetriaminepentaacetic acids” (Brookhaven Science Associates, priority 1998, dated 1999).

Columns and labels:
[1] = system: bone pain
[2] = system: bone marrow; details: for contamination and radiation cystitis risk: therapeutic doses

Compound | duration of pain relief ([1]; human, in vivo) | onset of clinical benefit / pain relief ([1]; human, in vivo) | onset of clinical benefit / symptom relief (frequently) ([1]; human, in vivo) [h] | myelosuppression ([2]; human, in vivo) | contamination and radiation cystitis risk [2] | urinary excretion of radioactivity (therapeutic doses 35 to 210 mCi) | onset of pain relief ([1]; pretreatment with androgen, after administration) | palliation of bone pain ([1]; Phase II pilot study, Atkins et al. (1995)) | relief of bone pain in humans ([1]; particular efficacy at about 9 to about 25 mCi per 70 kg, WO 95/29706) | bone uptake and retention compared with ^32 P orthophosphate, ^153 Sm-EDTMP, ^186 Re-HEDP, and ^89 SrCl2 (human, in vivo)
O=P([O-])(O)CN(CCN(CP(=O)([O-])O)CP(=O)(O)O)CP(=O)([O-])O.[153Sm+3] [^153 Sm-EDTMP, ^153 Sm ethylenediaminetetramethylenephosphonate] | four to forty | two | ≤ 48 | Reversible myelosuppression | creating contamination risks and potentially causing radiation cystitis | large amounts of radioactivity can be excreted in the patient's urine | – | – | – | –
O=[32P](O)(O)O [^32 P orthophosphate] | – | – | – | – | – | – | five to fourteen | – | – | –
^117m Sn (Sn^4+) diethylenetriaminepentaacetic acid [^117m Sn (Sn^4+) DTPA] | – | – | – | – | less risk of contamination and radiation cystitis | – | – | palliation of bone pain | dose-dependent relief of bone pain | higher bone uptake and retention
